Common to all, as to type: in vivo
For assay [1], the system named is western flower thrips (Frankliniella occidentalis). As to the kind of experiment: Insecticidal activity against western flower thrips. The conditions noted are these: Frankliniella occidentalis, 48 h; 500 ppm chemical solution sprinkled (2.5 mg/cm^2), larvae on common bean leaf, after 2 days; read-out: death rate. As to the method: Wet filter paper was laid on each styrol cup having an inner diameter of 7 cm, and a common bean leaf cut into a 3 cm square was placed thereon, and inoculated with 20 western flower thrips (Frankliniella occidentalis) larvae. A 10% by mass emulsion of the presently invented compound prepared according to the above formulation example for an emulsion was diluted with water containing a spreader to prepare a chemical solution having a concentration of 500 ppm. For each styrol cup, 2.5 ml of the chemical solution prepared was sprinkled (2.5 mg/cm^2) with a rotary tower sprinkler. […] The test was carried out in duplicate.

In assay [2] the test system is diamondback moths (Plutella xylostella). As to the kind of experiment: Insecticidal test for diamondback moths. The conditions noted are these: Plutella xylostella, 144 h; 500 ppm chemical solution, leaves soaked, third-instar larvae, six days, 25°C; read-out: death rate. On the procedure: A 10% by mass emulsion of the presently invented compound prepared according to the above formulation example for an emulsion was diluted with water containing a spreader to prepare a chemical solution having a concentration of 500 ppm. Chinese olive leaves were soaked in the chemical solution for approximately 10 seconds. After the completion of the soaking operation, the Chinese olive leaves treated with the chemical solution were air-dried, and then put in dishes. Into each dish, five third-instar diamondback moths (Plutella xylostella) larvae were released, and the dishes were capped and accommodated in a thermostatic room at 25°C. […] The test was carried out in duplicate.

Assay [3] relates to brown rice planthoppers (Nilaparvata lugens). As to the kind of experiment: Insecticidal test for brown rice planthoppers. The conditions noted are these: Nilaparvata lugens, 144 h; 500 ppm chemical solution, rice leaf sheaths soaked, third-instar larvae, six days, 25°C; read-out: death rate. On the procedure:
A 10% by mass emulsion of the presently invented compound prepared according to the above formulation example for an emulsion was diluted with water containing a spreader to prepare a chemical solution having a concentration of 500 ppm. Rice leaf sheaths were soaked in the chemical solution for approximately 10 seconds. After the completion of the soaking operation, the rice leaf sheaths treated with the chemical solution were air-dried, and then put in test tubes. Into each test tube, five third-instar brown rice planthoppers (Nilaparvata lugens) larvae were released, and the test tubes were capped with sponge and accommodated in a thermostatic room at 25°C. Six days after the accommodation, the number of dead brown rice planthoppers individuals in the test tubes were examined, and the death rate was calculated from a calculation formula shown below. The test was carried out in duplicate. [formula]

The test system of assay [4] is cat fleas (Ctenocephalides felis). As to the kind of experiment: whole plant or invertebrate. The conditions noted are these: 72 h, read-out: death rate. On the procedure:
In 1 ml of acetone, 1 mg of the presently invented compound was dissolved to prepare a chemical solution having a concentration of 1000 ppm. The bottom surface and side surface of each glass container having an inner wall surface area of 25 cm^2 were coated with 250 µl of the chemical solution, and acetone was then volatilized to form a thin film of the compound on the inner wall of the glass container.
Into each of the treated glass containers, five cat fleas (Ctenocephalides felis) imagoes (mixed-sex) were released, and the glass containers were capped and accommodated in a thermostatic room at 25°C. Three days after the release, the number of dead flea individuals were examined, and the death rate was calculated from the same calculation formula as in Test Example 1.

A value given as a limit tells only on which side of the number the result lay.

As to `O=C(Nc1cncc(F)c1Br)C1=C(O)CC(c2cnc(Cl)c(-c3cnccc3F)c2)NC1=O` (stereo not shown) [2-139], the mortality at 500 µg/mL in assay [1], in assay [2] and in assay [3] was ≥ 90% in each case. The mortality at 10 µg/cm2 in assay [4] was ≥ 50%.

`O=C(Nc1cc(Br)c(F)cn1)C1=C(O)CC(c2cnc(Cl)c(-c3cnccc3F)c2)NC1=O` (stereo not shown) [2-140]: the mortality at 500 µg/mL in assay [1], in assay [2] and in assay [3] was ≥ 90% in each case. For the same compound, the mortality at 10 µg/cm2 in assay [4] is ≥ 50%.

Regarding `O=C(Nc1cccc(F)n1)C1=C(O)CC(c2cnc(Cl)c(-c3cnccc3F)c2)NC1=O` (stereo not shown) [2-142], the mortality at 500 µg/mL in assay [1], in assay [2] and in assay [3] was ≥ 90% in each case. The mortality at 10 µg/cm2 in assay [4] is ≥ 50%.

With `O=C(Nc1cc(Br)ccn1)C1=C(O)CC(c2cnc(Cl)c(-c3cnccc3F)c2)NC1=O` (stereo not shown) [2-144], the mortality at 500 µg/mL in assay [1], in assay [2] and in assay [3] was ≥ 90% in each case. In addition, in assay [4], the mortality at 10 µg/cm2 is ≥ 50%.

As for `O=C(Nc1cc(C(F)(F)F)ccn1)C1=C(O)CC(c2cnc(Cl)c(-c3cnccc3F)c2)NC1=O` (stereo not shown) [2-145], the mortality at 500 µg/mL in assay [1], in assay [2] and in assay [3] was ≥ 90% each time. For the same compound, the mortality at 10 µg/cm2 in assay [4] was ≥ 50%.

Turning to `O=C(Nc1cnccn1)C1=C(O)CC(c2cnc(Cl)c(-c3cncc(Cl)c3)c2)NC1=O` (stereo not shown) [2-147], the mortality at 500 µg/mL in assay [1], in assay [2] and in assay [3] was ≥ 90% each time. Besides, the mortality at 10 µg/cm2 in assay [4] was ≥ 50%.

Take `O=C(Nc1cnccn1)C1=C(O)CC(c2cnc(Cl)c(-c3ccc(F)cc3)c2)NC1=O` (stereo not shown) [2-227]: the mortality at 500 µg/mL in assay [1], in assay [2] and in assay [3] was ≥ 90% throughout. The mortality at 10 µg/cm2 in assay [4] was ≥ 50%.

On to `O=C(Nc1nccs1)C1=C(O)CC(c2cnc(Cl)c(-c3ccc(F)cc3)c2)NC1=O` (stereo not shown) [2-235], for which the mortality at 500 µg/mL in assay [1], in assay [2] and in assay [3] was ≥ 90% in each case. Further, the mortality at 10 µg/cm2 in assay [4] is ≥ 50%.

As for `Cc1cccc(-c2cc(C3CC(O)=C(C(=O)Nc4ccccn4)C(=O)N3)cnc2Cl)c1` (stereo not shown) [2-260], the mortality at 500 µg/mL in assay [1], in assay [2] and in assay [3] was ≥ 90% each time. For the same compound, the mortality at 10 µg/cm2 in assay [4] was ≥ 50%.

Take `Cc1cccc(-c2cc(C3CC(O)=C(C(=O)Nc4cnccn4)C(=O)N3)cnc2Cl)c1` (stereo not shown) [2-261]: the mortality at 500 µg/mL in assay [1], in assay [2] and in assay [3] was ≥ 90% in each case. Further, the mortality at 10 µg/cm2 in assay [4] is ≥ 50%.

Take `Cc1cccc(-c2cc(C3CC(O)=C(C(=O)Nc4ccc(F)cc4)C(=O)N3)cnc2Cl)c1` (stereo not shown) [2-263]: the mortality at 500 µg/mL in assay [1], in assay [2] and in assay [3] was ≥ 90% throughout. Besides, the mortality at 10 µg/cm2 in assay [4] is ≥ 50%.

Take `Cc1cccc(-c2cc(C3CC(O)=C(C(=O)Nc4ccc(C#N)cc4)C(=O)N3)cnc2Cl)c1` (stereo not shown) [2-269]: the mortality at 500 µg/mL in assay [1], in assay [2] and in assay [3] was ≥ 90% in each case. Moreover, the mortality at 10 µg/cm2 in assay [4] is ≥ 50%.

With `O=C(Nc1ccc(F)cc1)C1=C(O)CC(c2nc(-c3ccccc3)no2)NC1=O` (stereo not shown) [3-001], the mortality at 500 µg/mL in assay [1], in assay [2] and in assay [3] was ≥ 90% throughout. Besides, the mortality at 10 µg/cm2 in assay [4] is ≥ 50%.

Turning to `O=C(Nc1ccc(F)cc1)C1=C(O)CC(c2nc(-c3cccc(C(F)(F)F)c3)no2)NC1=O` (stereo not shown) [3-005], the mortality at 500 µg/mL in assay [1], in assay [2] and in assay [3] was ≥ 90% each time. Moreover, the mortality at 10 µg/cm2 in assay [4] is ≥ 50%.

For the compound `O=C(Nc1ccc(F)cc1)C1=C(O)CC(c2nc(-c3ccccn3)no2)NC1=O` (stereo not shown) [3-006], the mortality at 500 µg/mL in assay [1], in assay [2] and in assay [3] was ≥ 90% each time. For the same compound, in assay [4], the mortality at 10 µg/cm2 was ≥ 50%.

As to `O=C(Nc1ccc(F)cc1)C1=C(O)CC(c2nc(-c3cccnc3)no2)NC1=O` (stereo not shown) [3-007], the mortality at 500 µg/mL in assay [1], in assay [2] and in assay [3] was ≥ 90% in each case. In addition, the mortality at 10 µg/cm2 in assay [4] is ≥ 50%.

For `O=C(Nc1ccc(F)cc1)C1=C(O)CC(c2nc(-c3ccc(F)cc3)no2)NC1=O` (stereo not shown) [3-010], the mortality at 500 µg/mL in assay [1], in assay [2] and in assay [3] was ≥ 90% in each case. In addition, the mortality at 10 µg/cm2 in assay [4] is ≥ 50%.

Turning to `O=C(Nc1ccc(F)cc1)C1=C(O)CC(c2nc(-c3ccccc3F)no2)NC1=O` (stereo not shown) [3-012], the mortality at 500 µg/mL in assay [1], in assay [2] and in assay [3] was ≥ 90% in each case. Further, the mortality at 10 µg/cm2 in assay [4] was ≥ 50%.

Take `O=C(Nc1ccc(F)cc1)C1=C(O)CC(c2nc(-c3cncc(F)c3)no2)NC1=O` (stereo not shown) [3-021]: the mortality at 500 µg/mL in assay [1], in assay [2] and in assay [3] was ≥ 90% throughout. The mortality at 10 µg/cm2 in assay [4] is ≥ 50%.

For the compound `O=C(Nc1ccc(F)cc1)C1=C(O)CC(c2nc(-c3cc(F)ccc3F)no2)NC1=O` (stereo not shown) [3-026], the mortality at 500 µg/mL in assay [1], in assay [2] and in assay [3] was ≥ 90% in each case. Moreover, the mortality at 10 µg/cm2 in assay [4] is ≥ 50%.

For the compound `O=C(Nc1ccc(F)cc1)C1=C(O)CC(c2nc(-c3cccc(Cl)c3)no2)NC1=O` (stereo not shown) [3-029], the mortality at 500 µg/mL in assay [1], in assay [2] and in assay [3] was ≥ 90% each time. For the same compound, the mortality at 10 µg/cm2 in assay [4] was ≥ 50%.

Consider `Cc1cccc(-c2noc(C3CC(O)=C(C(=O)Nc4ccc(F)cc4)C(=O)N3)n2)c1` (stereo not shown) [3-030], for which the mortality at 500 µg/mL in assay [1], in assay [2] and in assay [3] was ≥ 90% throughout. Moreover, the mortality at 10 µg/cm2 in assay [4] was ≥ 50%.

Turning to `O=C(Nc1ccc(F)cc1)C1=C(O)CC(c2nc(-c3ccncc3)no2)NC1=O` (stereo not shown) [3-031], the mortality at 500 µg/mL in assay [1], in assay [2] and in assay [3] was ≥ 90% in each case. Further, in assay [4], the mortality at 10 µg/cm2 is ≥ 50%.

In the case of `O=C(Nc1ccc(F)cc1)C1=C(O)CC(c2nc(-c3cc(F)cc(F)c3)no2)NC1=O` (stereo not shown) [3-034], the mortality at 500 µg/mL in assay [1], in assay [2] and in assay [3] was ≥ 90% each time. The mortality at 10 µg/cm2 in assay [4] was ≥ 50%.

For `O=C(Nc1ccc(F)cn1)C1=C(O)CC(c2nc(-c3ccnc(F)c3)no2)NC1=O` (stereo not shown) [3-036, N-(5-fluoropyridin-2-yl)-6-(3-(2-fluoropyridin-4-yl)-1,2,4-oxadiazol-5-yl)-4-hydroxy-2-oxo-1,2,5,6-tetrahydropyridine-3-carboxamide], the mortality at 500 µg/mL in assay [1], in assay [2] and in assay [3] was ≥ 90% in each case. Further, in assay [4], the mortality at 10 µg/cm2 is ≥ 50%.

For `O=C(Nc1cc(F)ccn1)C1=C(O)CC(c2nc(-c3cc(F)ccc3F)no2)NC1=O` (stereo not shown) [3-050], the mortality at 500 µg/mL in assay [1], in assay [2] and in assay [3] was ≥ 90% in each case. The mortality at 10 µg/cm2 in assay [4] is ≥ 50%.

As for `O=C(Nc1cc(F)ccn1)C1=C(O)CC(c2nc(-c3cccc(F)c3)no2)NC1=O` (stereo not shown) [3-057], the mortality at 500 µg/mL in assay [1], in assay [2] and in assay [3] was ≥ 90% throughout. Besides, in assay [4], the mortality at 10 µg/cm2 was ≥ 50%.

As to `O=C(Nc1ccccn1)C1=C(O)CC(c2nc(-c3ccnc(F)c3)no2)NC1=O` (stereo not shown) [3-065], the mortality at 500 µg/mL in assay [1], in assay [2] and in assay [3] was ≥ 90% each time. Moreover, in assay [4], the mortality at 10 µg/cm2 is ≥ 50%.

These data come from patent publication EP4582413A1, “ARYLTETRAHYDROPYRIDINE COMPOUND AND PEST CONTROL AGENT” (priority 2022, dated 2024).
